According to patent US20240277670A1, “SAFE USE OF MMP-12 INHIBITOR” (Foresee Pharmaceuticals Co., Ltd., priority 2021, published 2024):

Assay: Single ascending dose (SAD) study, safety and tolerability
Format: in vivo, human
Description: Eight cohorts of eight subjects each (six on active and two on placebo) were enrolled. Two different oral formulations of the compound of formula (I) were tested. The initial formulation was neat active pharmaceutical ingredient (API) filled in oral capsules of the compound of formula (I) (API-in-Capsule) which was tested at three dose levels: 200 mg, 400 mg, and 800 mg. Subsequently, an improved oral formulation was tested, the amorphous solid dispersion (ASD) of the compound of formula (I) (ASD-in-Capsule) at five dose levels: 50 mg, 100 mg, 200 mg, 350 mg, and 450 mg (FIG. 1).
Safety and tolerability were assessed at pre-specified timepoints throughout the studies by AEs reporting, vital signs measurements, physical examination, laboratory tests, and ECG examinations.
Safety and tolerability data were evaluated for the treated population (all participants who took at least one dose of study medications). […] Descriptive statistics were used to evaluate the safety and tolerability data and for plasma concentrations and PK parameters of the compound of formula (I).

## Cc1cccc(COc2ccc(Sc3ccoc3C3NC(=O)NC3=O)cc2)c1 (stereo not drawn) [compound of formula (I)]
Across all dose levels studied
  Safety and tolerability, overall: safe and generally well-tolerated
All dose levels and both formulations
  Severe or serious AEs: No severe or serious AEs were reported
Any time point
  Changes from baseline in weight, vital signs, physical examination, laboratory or ECG data: No clinically relevant changes
